For twelve compounds, ring closure, yield of all isomers, EC50 and IC50 results are on record in US20110081315A1, “NOVEL MACROCYCLIC INHIBITORS OF HEPATITIS C VIRUS REPLICATION” (INTERMUNE, INC., priority 2009, published 2011).

As a reminder, the EC50 is the concentration that produces a half-maximal response. Broadly, the IC50 is the concentration needed to halve the response being measured.

The conditions of data set [1]: rcm bond.
In a further data set the test system is hepatitis C replicon. In words: hepatitis C replicon EC50 assay. The data set is classed as cell-based. The note with it: Hepatitis C virus; hepatitis C replicon; read-out: EC50. The essentials: (§1)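 NS3/NS4 protease complexes were formed and compound inhibitory concentrations (IC50) measured at ambient temperature (23° C.) in 50 mM Tris-HCl, pH 7.5, with 15% glycerol, 0.6 mM LDAO, 25 μM NS4A peptide and 10 mM DTT. Replicon EC50 values come from a standard HCV replicon cell assay.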
(In antiviral work, replicon cells carry a viral genome segment that copies itself.)

Another data set deals with NS3/NS4 complexes (Hepatitis C virus genotype 1a, UniProt P27958). In words: NS3/NS4 inhibition assay (IC50). The note with it: NS3/NS4 activity; 23° C., 25 μM NS4A peptide. The data set is classed as biochemical. The gist of the method:
as §1

Read-outs that look alike come from different tables or passages of the source.

Sequence of NS3/NS4 complexes (P27958 1027-1657, one chain of several): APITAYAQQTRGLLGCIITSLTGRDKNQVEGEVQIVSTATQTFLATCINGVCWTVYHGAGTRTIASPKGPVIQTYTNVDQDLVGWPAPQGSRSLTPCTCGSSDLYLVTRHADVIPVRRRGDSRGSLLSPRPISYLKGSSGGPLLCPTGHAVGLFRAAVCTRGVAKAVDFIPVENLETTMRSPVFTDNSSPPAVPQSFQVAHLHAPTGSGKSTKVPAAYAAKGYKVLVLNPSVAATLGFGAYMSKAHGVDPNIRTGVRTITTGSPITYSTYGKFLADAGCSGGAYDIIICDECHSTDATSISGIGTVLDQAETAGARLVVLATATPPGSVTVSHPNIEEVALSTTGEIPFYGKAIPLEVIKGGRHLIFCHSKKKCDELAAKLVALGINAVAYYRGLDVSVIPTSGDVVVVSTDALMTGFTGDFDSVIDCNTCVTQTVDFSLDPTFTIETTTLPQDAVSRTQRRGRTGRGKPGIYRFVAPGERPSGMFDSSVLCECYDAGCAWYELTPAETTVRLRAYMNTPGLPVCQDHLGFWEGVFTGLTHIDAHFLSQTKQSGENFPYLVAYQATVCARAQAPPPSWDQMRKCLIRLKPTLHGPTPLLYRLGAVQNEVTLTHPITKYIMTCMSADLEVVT

In data set [1] (from C=CCCCCC[C@H](Nc1ccc(C(F)(F)F)cc1)C(=O)N1C[C@H](Oc2ncc3ncn(C(C)C)c3n2)C[C@H]1C(=O)N[C@]1(C(=O)NS(=O)(=O)C2(C)CC2)C[C@H]1C=C, Zhan catalyst, toluene, 7.78 mM, 65.0 °C, 1.5 h), `CC(C)n1cnc2cnc(O[C@@H]3C[C@H]4C(=O)N[C@]5(C(=O)NS(=O)(=O)C6(C)CC6)C[C@H]5C=CCCCCC[C@H](Nc5ccc(C(F)(F)F)cc5)C(=O)N4C3)nc21` returned a ring closure, yield of all isomers of 29%.

For the compound `COc1ccc2c(O[C@@H]3C[C@H]4C(=O)N[C@]5(C(=O)NS(=O)(=O)C6(C)CC6)C[C@H]5C=CCCCCC[C@H](Nc5cccc(F)c5)C(=O)N4C3)nc(-c3nc(C(C)C)cs3)nc2c1C`, the ring closure, yield of all isomers in data set [1] (from C=CCCCCC[C@H](Nc1cccc(F)c1)C(=O)N1C[C@H](Oc2nc(-c3nc(C(C)C)cs3)nc3c(C)c(OC)ccc23)C[C@H]1C(=O)N[C@]1(C(=O)NS(=O)(=O)C2(C)CC2)C[C@H]1C=C, Zhan catalyst, toluene, 7.24 mM, 65.0 °C, 0.67 h) is 24%.

As to `CCOC(=O)[C@@]12C[C@H]1C=CCCCCN(c1ccccc1)C(=O)[C@@H]1C[C@@H](O)C[C@H]1C(=O)N2`, the ring closure, yield of all isomers in data set [1] (from C=CCCCCN(C(=O)[C@@H]1C[C@@H](O)C[C@H]1C(=O)N[C@]1(C(=O)OCC)C[C@H]1C=C)c1ccccc1, Hoveyda-Grubbs 2nd generation, DCE, 0.167 mM, 83.0 °C, 16.0 h) was determined as 94.6%.

For `CN(C)S(=O)(=O)NC(=O)[C@@]12C[C@H]1/C=C\CCCCC[C@H](NC(=O)OC(C)(C)C)C(=O)N1C[C@H](Oc3nc4ccccc4nc3-c3ccccc3)C[C@H]1C(=O)N2` [Compound 306], the EC50 in the data set with hepatitis C replicon lay within 10 to 100 nM. On NS3/NS4 complexes, this compound returned a half-maximal inhibitory concentration (IC50) of under 10 nM.

With `CC(C)c1cccc2c1nc(O[C@@H]1C[C@H]3C(=O)N[C@]4(C(=O)NS(=O)(=O)C5(C)CC5)C[C@H]4/C=C\CCCCC[C@H](Nc4ccccc4)C(=O)N3C1)n2C(C)C` [Compound 201], in the data set on hepatitis C replicon, the EC50 was in the range of 10 to 100 nM. The compound further gave an IC50 against NS3/NS4 complexes of under 10 nM.

Consider `CC(C)n1cnc2cc(O[C@@H]3C[C@H]4C(=O)N[C@]5(C(=O)NS(=O)(=O)C6(C)CC6)C[C@H]5/C=C\CCCCC[C@H](NC(=O)OC(C)(C)C)C(=O)N4C3)ccc21` [Compound 297], for which the concentration for a half-maximal effect (EC50) with hepatitis C replicon was over 100 nM. The IC50 against NS3/NS4 complexes was under 10 nM.

As for `CC(C)n1c(O[C@@H]2C[C@H]3C(=O)N[C@]4(C(=O)NS(=O)(=O)N(C)C)C[C@H]4/C=C\CCCCC[C@H](NC(=O)OC(C)(C)C)C(=O)N3C2)nc2c(-c3nc(-c4cccnc4)cs3)cccc21` [Compound 1736], in the data set on hepatitis C replicon, the concentration for a half-maximal effect (EC50) is under 10 nM. Moreover, the IC50 on NS3/NS4 complexes is under 10 nM.

Regarding `CC(C)n1c(O[C@@H]2C[C@H]3C(=O)N[C@]4(C(=O)NS(=O)(=O)C5(C)CC5)C[C@H]4/C=C\CCCCC[C@H](NC(=O)OC(C)(C)C)C(=O)N3C2)nc2c(-c3csc(C4CC4)n3)cccc21` [Compound 1702], the EC50 in the data set with hepatitis C replicon was under 10 nM. For the same compound, the IC50 at NS3/NS4 complexes was under 10 nM.

Take `COc1ccc2c(O[C@@H]3C[C@H]4C(=O)N[C@]5(C(=O)NS(=O)(=O)C6(C)CC6)C[C@H]5/C=C\CCCCC[C@H](Nc5cccc(-c6ncco6)c5)C(=O)N4C3)cc(-c3nc(C(C)C)cs3)nc2c1C` [Compound 128]: the EC50 in the data set with hepatitis C replicon is under 10 nM. This compound also returned an IC50 on NS3/NS4 complexes of under 10 nM.

As to `Cc1nc(-c2cccc3c2nc(O[C@@H]2C[C@H]4C(=O)N[C@]5(C(=O)NS(=O)(=O)C6CC6)C[C@H]5/C=C\CCCCC[C@H](NC(=O)OC(C)(C)C)C(=O)N4C2)n3C(C)C)sc1C` [Compound 217], the half-maximal effective concentration (EC50) with hepatitis C replicon was under 10 nM. Moreover, the half-maximal inhibitory concentration (IC50) on NS3/NS4 complexes is under 10 nM.

For the compound `CC(C)n1c(O[C@@H]2C[C@H]3C(=O)N[C@]4(C(=O)NS(=O)(=O)N(C)C)C[C@H]4/C=C\CCCCC[C@H](NC(=O)OC(C)(C)C)C(=O)N3C2)nc2c(-c3nc(Cc4cccc(Cl)c4)cs3)cccc21` [Compound 1761], in the data set on hepatitis C replicon, the concentration for a half-maximal effect (EC50) lay in the range of 10 to 100 nM. At NS3/NS4 complexes, this compound returned an IC50 of under 10 nM.

As to `CC(C)n1c(O[C@@H]2C[C@H]3C(=O)N[C@]4(C(=O)NS(=O)(=O)C5(C)CC5)C[C@H]4/C=C\CCCCC[C@H](NC(=O)OC(C)(C)C)C(=O)N3C2)nc2c(-c3nc(C4CC4)cs3)cccc21` [Compound 1777], the EC50 with hepatitis C replicon was under 10 nM. On NS3/NS4 complexes, the concentration for half-maximal inhibition (IC50) is under 10 nM.
